# Experimental data as given in US8664217B2, “Benzodiazepine compound and pharmaceutical composition” (Otsuka Pharmaceutical Co., Ltd., priority 2008, dated 2014).
# Where a name gives a salt, the structure may show the parent alone.
# Molecular target: T1, human Kv1.5 channels (Homo sapiens, UniProt P22460)
# T1 construct: Full-length human Kv1.5 cDNA was cloned from a human heart cDNA library; expressed in transfected cells; host or cells: CHO-K1
# Experiment: Measurement of human Kv1.5 channel current by whole-cell patch clamp method (human Kv1.5-expressing CHO-K1 cell line)
# Format: cell-based
# Conditions: human Kv1.5-expressing CHO-K1 cells, step end current at +40 mV, test compound 0.1, 1, 10 μM
# Method: Pharmacological Test 1 (1) Production of Human Kv1.5-Expressing CHO-K1 Cell Lines
# CHO-K1 cell lines stably expressing human Kv1.5 channels were prepared in the following manner.
# Full-length human Kv1.5 cDNA was cloned from a human heart cDNA library (produced by Stratagene). The obtained human Kv1.5 sequence corresponds to the sequence described in FASEB J. 5, 331-337 (1991).
# The obtained human Kv1.5 cDNA was inserted into a plasmid encoding a CMV promoter and a G418 resistance marker to produce a Kv1.5 expression vector. The human Kv1.5 expression vector was transfected into CHO-K1 cells by the lipofectamine method. After culturing the cells in an F-12 medium (produced by Invitrogen Corp.) containing 10% FBS (produced by Invitrogen Corp.) for 3 or 4 days, the medium was replaced with a FBS-containing F-12 medium that included 1,000 μg/ml of G418 (produced by Invitrogen Corp.), and single colonies were isolated. The amount of Kv1.5 channel expression in the single colonies was quantified at the mRNA level by RT-PCR and then quantified at the protein level by western blotting. Finally, the expressed current was analyzed by patch clamp method. Cell lines expressing a current of 200 pA or more per cell were selected as channel-expressing cell lines for activity measurement by patch clamp method.
# (3) Measurement of Ion Channel Current by Patch Clamp Method (Human Kv1.5-Expressing CHO-K1 Cell Line)
# An experiment was carried out using a patch clamp setup at room temperature (20 to 26° C.). A perfusion chamber having a diameter of 20 mm (flow rate: about 5 ml/min) was mounted on the stage of a phase-contrast inverted microscope (produced by Nikon Corporation) placed on a vibration isolated table. A poly-L-lysine (produced by Sigma)-coated coverslip (diameter: 15 mm, produced by Matsunami Glass Ind., Ltd.) on which human Kv1.5-expressing cells were cultured was placed in the perfusion chamber.
# Depolarizing stimulation pulses were applied and ionic current was recorded by using a patch clamp amplifier (EPC-7 or EPC-7 PLUS, produced by HEKA) and a personal computer (manufactured by IBM Corp.) in which software for data acquisition and analysis of ion channel current (PULSE 8.77, produced by HEKA) was installed. The current was measured in the whole-cell configuration of the patch-clamp technique. The tip (resistance: 2 to 4 MΩ) of a borosilicate glass pipette (produced by Sutter Instrument Co.) was gently placed on the cell membrane by using a three-dimensional mechanical micromanipulator (produced by Shoshin EM Corporation). […] Subsequently, stronger suction was applied to break the cell membrane. The capacitative current derived from the cell membrane was corrected using a patch clamp amplifier. Subsequently, the series resistance (Rs) between the pipette and the interior of the cell was measured and corrected.
# The composition of the extracellular solution used is shown below. Unless otherwise specified, these components were obtained from Wako Pure Chemical Industries, Ltd.
# Each test compound was prepared as a 1000-fold concentrated stock solution that was dissolved in DMSO and then diluted in the extracellular solution.
# The composition of the electrode internal solution used is shown below. Unless otherwise specified, these components were obtained from Wako Pure Chemical Industries, Ltd.
# (5) Measurement of Human Kv1.5 Current
# While the membrane potential was bolded at −80 mV, depolarizing pulses (−80 mV for 0.05 seconds→+40 mV for 0.2 seconds →−40 mV for 0.2 seconds→−80 mV for 0.05 seconds) were applied at a stimulation frequency of 1 Hz to measure Kv1.5 channel current. More specifically, first, while perfusing an extracellular solution containing 0.1% DMSO and holding the membrane potential at −80 mV, depolarizing pulses were applied. The current obtained during the pulse application was recorded as a current in the absence of the test compounds. […]
# T1 sequence (P22460 whole entry): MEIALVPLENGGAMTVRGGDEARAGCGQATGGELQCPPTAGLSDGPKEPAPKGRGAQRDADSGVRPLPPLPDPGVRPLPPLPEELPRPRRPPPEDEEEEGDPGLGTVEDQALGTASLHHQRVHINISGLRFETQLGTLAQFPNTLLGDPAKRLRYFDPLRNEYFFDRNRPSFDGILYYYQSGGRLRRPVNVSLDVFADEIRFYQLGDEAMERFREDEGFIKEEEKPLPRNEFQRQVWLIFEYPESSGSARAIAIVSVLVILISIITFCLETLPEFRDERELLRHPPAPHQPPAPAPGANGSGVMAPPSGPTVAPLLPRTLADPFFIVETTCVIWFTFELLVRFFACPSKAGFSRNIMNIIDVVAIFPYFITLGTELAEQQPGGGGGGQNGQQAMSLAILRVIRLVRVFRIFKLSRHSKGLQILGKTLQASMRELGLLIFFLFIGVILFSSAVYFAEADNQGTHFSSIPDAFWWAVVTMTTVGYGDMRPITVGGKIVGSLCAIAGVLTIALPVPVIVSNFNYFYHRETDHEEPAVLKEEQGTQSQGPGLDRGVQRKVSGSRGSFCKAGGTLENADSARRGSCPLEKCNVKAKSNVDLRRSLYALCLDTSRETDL
row,Structure (SMILES),IC50 [nM]
1,"CCN1C(=O)C(C)(C)C(=O)N(C)c2cc(OCCCN(CCc3cccnc3)Cc3ccncc3)ccc21 [Example 8, 1-ethyl-3,3,5-trimethyl-7-{3-[(2-pyridin-3-ylethyl)pyridin-4-ylmethylamino]propoxy}-1,5-dihydrobenzo[b][1,4]diazepine-2,4-dione trihydrochloride]",400
2,"CCCN1C(=O)C(C)(C)C(=O)N(C)c2cc(OCCCN(CCc3cccnc3)Cc3ccncc3)ccc21 [Example 10, 3,3,5-trimethyl-1-propyl-7-{3-[(2-pyridin-3-ylethyl)pyridin-4-ylmethylamino]propoxy}-1,5-dihydrobenzo[b][1,4]diazepine-2,4-dione trihydrochloride]",580
3,"CCN1C(=O)C(C)(C)C(=O)N(CC)c2cc(OCCCN(CCc3cccnc3)Cc3ccncc3)ccc21 [Example 14, 1,5-diethyl-3,3-dimethyl-7-{3-[(2-pyridin-3-ylethyl)pyridin-4-ylmethylamino]propoxy}-1,5-dihydrobenzo[b][1,4]diazepine-2,4-dione trihydrochloride]",580
4,"CN1C(=O)C(C)(C)C(=O)N(C)c2cc(OCCCN(CCc3cccnc3)Cc3ccncc3)ccc21 [Example 19, 1,3,3,5-tetramethyl-7-{3-[(2-pyridin-3-ylethyl)pyridin-4-ylmethylamino]propoxy}-1,5-dihydrobenzo[b][1,4]diazepine-2,4-dione trihydrochloride]",540
5,"CCN1C(=O)C(C)(C)C(=O)N(C)c2cc(OCCCN(CCn3ccc4ccccc4c3=O)Cc3ccncc3)ccc21 [Example 23, 1-ethyl-3,3,5-trimethyl-7-(3-{[2-(1-oxo-1H-isoquinolin-2-yl)ethyl]pyridin-4-ylmethylamino}propoxy)-1,5-dihydrobenzo[b][1,4]diazepine-2,4-dione dihydrochloride]",180
6,"CCN1C(=O)C(C)(C)C(=O)N(C)c2cc(OCCCN(CCn3ccc4ccoc4c3=O)Cc3ccncc3)ccc21 [Example 31, 1-ethyl-3,3,5-trimethyl-7-(3-{[2-(7-oxo-7H-furo[2,3-c]pyridin-6-yl)ethyl]pyridin-4-ylmethylamino}propoxy)-1,5-dihydrobenzo[b][1,4]diazepine-2,4-dione dihydrochloride]",1300
7,"CN(CCN(CCCOc1ccc2c(c1)N(C)C(=O)C(C)(C)C(=O)N2C)Cc1ccncc1)C(=O)c1ccccc1 [Example 45, N-methyl-N-(2-{pyridin-4-ylmethyl-[3-(1,3,3,5-tetramethyl-2,4-dioxo-2,3,4,5-tetrahydro-1H-benzo[b][1,4]diazepin-7-yloxy)propyl]amino}ethyl)benzamide dihydrochloride]",690
8,"Cc1ccccc1CN(CCCOc1ccc2c(c1)N(C)C(=O)C(C)(C)C(=O)N2C)CCc1cccnc1 [Example 50, 1,3,3,5-tetramethyl-7-{3-[(2-methylbenzyl)-(2-pyridin-3-ylethyl)amino]propoxy}-1,5-dihydrobenzo[b][1,4]diazepine-2,4-dione dihydrochloride]",250
9,"CN1C(=O)C(C)(C)C(=O)N(C)c2cc(OCCCN(CCc3cccnc3)Cc3ccnc4ccccc34)ccc21 [Example 51, 1,3,3,5-tetramethyl-7-{3-[(2-pyridin-3-ylethyl)-(quinolin-4-ylmethyl)amino]propoxy}-1,5-dihydrobenzo[b][1,4]diazepine-2,4-dione trihydrochloride]",210
10,"CCN1C(=O)C(C)(C)C(=O)N(C)c2cc(OCCCN(CCc3cccnc3)Cc3ccncc3C)ccc21 [Example 54, 1-ethyl-3,3,5-trimethyl-7-{3-[(3-methylpyridin-4-ylmethyl)-(2-pyridin-3-ylethyl)amino]propoxy}-1,5-dihydrobenzo[b][1,4]diazepine-2,4-dione trihydrochloride]",280
11,CCN1C(=O)C(C)(C)C(=O)N(C)c2cc(OCCCN(CCn3ccc4ccccc4c3=O)Cc3ccsc3)ccc21 [Example 125],190
12,CCN1C(=O)C(C)(C)C(=O)N(C)c2cc(OCCCN(CCc3cccnc3)Cc3ccccc3)ccc21 [Example 200],290
13,CCN1C(=O)C(C)(C)C(=O)N(C)c2cc(OCCCN(CCn3ccc4ccoc4c3=O)Cc3cccs3)ccc21 [Example 417],180

# Second part, the compound after the results:
row,IC50 [nM],Structure (SMILES)
1,240,"CCN1C(=O)C(C)(C)C(=O)N(C)c2cc(OCCCN(CCn3c(=O)ccc4ccccc43)Cc3ccncc3)ccc21 [Example 63, 1-ethyl-3,3,5-trimethyl-7-(3-{[2-(2-oxo-2H-quinolin-1-yl)ethyl]pyridin-4-ylmethylamino}propoxy)-1,5-dihydrobenzo[b][1,4]diazepine-2,4-dione]"
2,380,"CCN1C(=O)C(C)(C)C(=O)N(C)c2cc(OCCCN(CCn3ccc4ccsc4c3=O)Cc3ccncc3)ccc21 [Example 68, 1-ethyl-3,3,5-trimethyl-7-(3-{[2-(7-oxo-7H-thieno[2,3-c]pyridin-6-yl)ethyl]pyridin-4-ylmethylamino}propoxy)-1,5-dihydrobenzo[b][1,4]diazepine-2,4-dione]"
3,150,CCN1C(=O)C(C)(C)C(=O)N(C)c2cc(OCCCN(CCn3ccc4ccccc4c3=O)Cc3ccc(C#N)cc3)ccc21 [Example 85]
4,270,CCN1C(=O)C(C)(C)C(=O)N(C)c2cc(OCCCN(CCn3ccc4ccccc4c3=O)Cc3ccco3)ccc21 [Example 132]
5,160,CCN1C(=O)C(C)(C)C(=O)N(C)c2cc(OCCCN(CCc3cccnc3)Cc3cccc(C#N)c3)ccc21 [Example 229]
6,180,CCN1C(=O)C(C)(C)C(=O)N(C)c2cc(OCCCN(CCc3cccnc3)Cc3ccccc3-c3cccnc3)ccc21 [Example 242]
7,160,CCN1C(=O)C(C)(C)C(=O)N(C)c2cc(OCCCN(CCn3ccc4ccoc4c3=O)Cc3ccc(C#N)cc3)ccc21 [Example 380]
8,190,CCN1C(=O)C(C)(C)C(=O)N(C)c2cc(OCCCN(CCn3ccc4ccoc4c3=O)Cc3ccc(C(F)(F)F)cc3)ccc21 [Example 395]
9,220,CCN1C(=O)C(C)(C)C(=O)N(C)c2cc(OCCCN(CCn3ccc4ccoc4c3=O)Cc3ccccc3C)ccc21 [Example 398]
10,440,"CCN1C(=O)C(C)(C)C(=O)N(C)c2cc(OCCCN(CCn3ccc4oc(C)cc4c3=O)Cc3ccncc3)ccc21 [Example 464, 1-ethyl-3,3,5-trimethyl-7-(3-{[2-(2-methyl-4-oxo-4H-furo[3,2-c]pyridin-5-yl)ethyl]pyridin-4-ylmethylamino}propoxy)-1,5-dihydrobenzo[b][1,4]diazepine-2,4-dione dihydrochloride]"
11,390,"CCN1C(=O)C(C)(C)C(=O)N(C)c2cc(OCCCN(CCn3ccc4occc4c3=O)Cc3cccnc3)ccc21 [Example 551, 1-ethyl-3,3,5-trimethyl-7-(3-{[2-(4-oxo-4H-furo[3,2-c]pyridin-5-yl)ethyl]pyridin-3-ylmethylamino}-propoxy)-1,5-dihydrobenzo[b][1,4]diazepine-2,4-dione]"
12,420,"CCN1C(=O)C(C)(C)C(=O)N(C)c2cc(OCCCN(CCn3ccc4sccc4c3=O)Cc3cccnc3)ccc21 [Example 568, 1-ethyl-3,3,5-trimethyl-7-(3-{[2-(4-oxo-4H-thieno[3,2-c]pyridin-5-yl)ethyl]pyridin-3-ylmethylamino}-propoxy)-1,5-dihydrobenzo[b][1,4]diazepine-2,4-dione]"
